Measurements taken from paper PMC10778758, “Dithioethanol (DTE)-Conjugated Deoxyribose Cyclic Dinucleotide Prodrugs (DTE-dCDNs) as STING Agonist” (International Journal of Molecular Sciences, 2023).

Experiments:
[1] = In vitro serum stability assay in 20% fetal bovine serum; assay type: in vitro ADME; conditions: bovine, 20% fetal bovine serum, pH 7.4, 20% FBS, 37 °C, read-out: T1/2 (half-life period) (converted)
Description: In vitro serum stability assay. Each compound (100 μM) was incubated at 37 °C in the reaction buffer including 20% fetal bovine serum (FBS, GIBCO, Thermo Fisher Scientific, Waltham, MA, USA), 10 mM PBS (pH 7.4), and 1 mM MgCl2. At various times, aliquots of the reaction mixture were collected and stopped by adding 50 μL MeCN and diluted with 50 μL water. The reaction mixture was then centrifuged at 10,000 rpm for 5 min, leaving 100 μL supernatant for the HPLC assay. An amount of 10 μL of each aliquot was injected directly into HPLC (Agilent 1260 Infinity HPLC equipped with a UV detector; column Agilent ZORABX SB-C18 5 μm [4.6 × 150 mm; detection at 254 nm; column temperature 25 °C] for analysis. Amounts of 10 mM TEAA buffer (solvent A) and MeCN (solvent B) were used as the mobile phase with a flow rate of 1 mL/min. The gradient was set as the following: 0–2 min: 98% A/2% B; 2–6 min: 98% A/2% B to 100% B; 6–10 min: 100% B; 10–13 min: 100% B to 98% A/2% B; 13–15 min: 98% A/2% B. The % remaining of the test compounds after incubation in the serum was then calculated.
Figure 4 Parent dCDN of DTE-dCDN prodrug 9 retained a high serum stability. The serum stability analysis of (a) prodrug 9, (b) 3′,3′-c-di-dAMP, (c) 2′,3′-cGAMP and (d) ADU-S100 were determined in 20% FBS. Each compound (100 μM) was incubated in 20% FBS at 37 °C. At various times (0, 2, 4, 8, 12, 24, 48, 72 h), aliquots of the reaction mixture were analyzed with HPLC at 254 nm. The % remaining of test compounds after incubation in serum was calculated.

[2] = tested on: THP-1 cells; assay: CCK8 cell viability, THP-1 cells; assay type: cell-based; conditions: 10 μM, 24 h
Description: Cell viability of THP-1 and HEK293T cells. A total of 5 × 10^3 HEK293T cells or THP-1 cells were seeded in 96-well plates. […] Cell counting kit-8 (CCK8) (US EVERBRIGHT, Newport Beach, CA, USA, c6005) was then used to quantitatively assess the cell viability through the OD value at 450 nm. The HEK293T cell line was obtained from American Type Culture Collection (ATCC).
Figure 8 Cell viability of THP-1 and HEK293T cells stimulated by prodrug 9 and 2′,3′-cGAMP. (a) A total of 5 × 10^3 THP-1 cells or (b) HEK293T cells were seeded in 96-well plates. Cells were stimulated with prodrug 9 (10 μM), 3′,3′-c-di-dAMP (100 μM), and 2′,3′-cGAMP (100 μM) for 24 h. Then, cell counting kit-8 (CCK8) (US EVERBRIGHT, c6005) was used to quantitatively assess cell viability through the OD value at 450 nm. Data are presented as mean ± SD, n = 3.

[3] = tested on: THP-1 cells; assay: ELISA of IFN-β protein levels in THP-1 culture supernatants; assay type: cell-based, human; conditions: 4 h
Description: Enzyme-Linked Immunosorbent Assay (ELISA). THP-1 cells were incubated with the compounds for 4 h. Cell culture supernatants were then analyzed via ELISA for human IFN-β levels (ABclonal, Woburn, MA, USA, catalogue no. RK01630) according to the manufacturer’s instructions. […]
expression levels of IFN-β were assessed by real-time quantitative PCR (qPCR) under the treatment of prodrug 9 (10 μM), 3′,3′-c-di-dAMP (100 μM), 2′,3′-cGAMP (100 μM) and ADU-S100 (10 μM) for 4 h.
Figure S3. Prodrug 9 stimulated the production of IFN-β in THP-1 cells. Under the treatment of prodrug […]
levels of IFN-β were assessed by an enzyme-linked immunosorbent assay (ELISA).
(also on this page, place not known: t reatment -S100 9 3',3'-c-di-dAMPADU-S100 IFN-β/β-actin IFN-β in Culture Medium (pg/ml)) […]

## Nc1ncnc2c1ncn2C1CC2OP(=O)(OCCSSc3ccccn3)OCC3OC(n4cnc5c(N)ncnc54)CC3OP(=O)(OCCSSc3ccccn3)OCC2O1 (centres unmarked) [prodrug 9]
[1]
  half-life at 100 μM: 28 h
[2]
  cell viability (CCK8), THP-1 cells: no significant influence on the growth
[3]; THP-1, prodrug 9 10 μM vs 2′,3′-cGAMP 100 μM
  IFN-β protein level, fold compared to 2′,3′-cGAMP: approximately 66 fold
[3]; THP-1, prodrug 9 10 μM vs 3′,3′-c-di-dAMP 100 μM
  IFN-β protein level, fold compared to 3′,3′-c-di-dAMP: ~4.3 fold
[3]; THP-1, prodrug 9 10 μM vs ADU-S100 10 μM
  IFN-β protein level, fold compared to ADU-S100: ~5.6 fold
